According to patent US20260317388A1, “SELECTIVE NUCLEAR BLOCKADE FOR THE TREATMENT OF SEPSIS” (priority 2023, published 2026):
Positions of bridges follow the written chain, without caps; N, C: chain ends. Residues, ends and D or L forms follow the SMILES beside them.

Legend:
sepsis = conditions: antibiotic-treated control group; cited from earlier work
Solubility = type: physicochemical

solubility (Solubility) | water solubility and bioavailability relative to SN50 peptide (Solubility; vs first generation NTCI (SN50 peptide)) | SMILES | survival with meropenem alone (sepsis)
– | – | C[C@@H](O)[C@H]1C(=O)N2C(C(=O)O)=C(S[C@@H]3CN[C@H](C(=O)N(C)C)C3)[C@H](C)[C@H]12 [meropenem] | 30%
≥ 100 mg/mL | 8 times | CSCC[C@@H]1NC(=O)[C@H](CC(C)C)NC(=O)[C@H](CCCCN)NC(=O)[C@H](CCC(N)=O)NC(=O)[C@H](CCCNC(=N)N)NC(=O)[C@H](CCCCN)NC(=O)[C@H](CCCNC(=N)N)NC(=O)[C@H](CCC(N)=O)NC(=O)[C@H](C(C)C)NC(=O)[C@@H](NC(=O)[C@@H]2CCCN2C(=O)[C@H](C)NC(=O)[C@H](CC(C)C)NC(=O)[C@H](CC(C)C)NC(=O)[C@H](C)NC(=O)[C@H](CC(C)C)NC(=O)[C@H](CC(C)C)NC(=O)[C@@H](NC(=O)[C@H](C)NC(=O)[C@@H]2CCCN2C(=O)[C@H](CC(C)C)NC(=O)[C@H](CC(C)C)NC(=O)[C@H](C)NC(=O)[C@@H](NC(=O)[C@H](C)NC(=O)[C@H](C)N)C(C)C)C(C)C)CSSC[C@@H](C(=O)O)NC(=O)[C@@H]2CCCN2C1=O [cSN50.1] (H-AAVALLPAVLLALLAPCVQRKRQKLMPC-OH; disulfide 17-28) | –
